Test results published in ChEMBL document CHEMBL1133329, “N-acyl phenylalanine analogues as potent small molecule VLA-4 antagonists” (Bioorg Med Chem Lett, 2000).

How the values were obtained:
Type in all cases: cell-based
[1] = target: T1, Integrin alpha-4/beta-1 (Homo sapiens, UniProt P05556+P13612); assay: Antagonistic activity against VLA-4 (derived from ramos cells) binding to recombinant human VCAM
[2] = target: T1, Integrin alpha-4/beta-1; assay: Inhibition of recombinant human VCAM binding to VLA-4 of Ramos cells at 10 uM
[3] = target: T1, Integrin alpha-4/beta-1; assay: Inhibition of CS-1 peptide binding to VLA-4 expressed in Ramos cells

T1 sequence (P05556 whole entry): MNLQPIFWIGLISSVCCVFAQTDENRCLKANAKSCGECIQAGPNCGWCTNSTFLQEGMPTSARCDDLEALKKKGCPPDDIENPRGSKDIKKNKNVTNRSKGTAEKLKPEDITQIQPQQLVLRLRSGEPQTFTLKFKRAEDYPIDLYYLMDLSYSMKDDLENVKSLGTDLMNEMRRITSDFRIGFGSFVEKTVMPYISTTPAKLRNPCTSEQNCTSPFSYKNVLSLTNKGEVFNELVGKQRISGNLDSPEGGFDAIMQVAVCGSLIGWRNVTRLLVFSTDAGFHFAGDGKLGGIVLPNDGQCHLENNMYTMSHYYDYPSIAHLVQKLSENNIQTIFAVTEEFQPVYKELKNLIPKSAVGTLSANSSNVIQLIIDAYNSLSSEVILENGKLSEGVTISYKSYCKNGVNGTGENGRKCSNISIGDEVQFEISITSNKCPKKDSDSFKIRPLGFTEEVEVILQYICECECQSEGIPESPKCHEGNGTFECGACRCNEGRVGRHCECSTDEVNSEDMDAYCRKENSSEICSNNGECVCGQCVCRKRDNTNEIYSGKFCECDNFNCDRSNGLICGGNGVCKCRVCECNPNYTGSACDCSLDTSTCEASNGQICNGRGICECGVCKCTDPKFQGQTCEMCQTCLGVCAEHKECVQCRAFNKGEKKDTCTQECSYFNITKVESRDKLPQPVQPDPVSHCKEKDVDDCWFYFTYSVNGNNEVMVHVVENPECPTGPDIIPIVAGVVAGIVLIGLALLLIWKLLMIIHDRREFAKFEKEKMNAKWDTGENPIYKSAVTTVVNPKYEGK
T1 sequence (P13612 whole entry): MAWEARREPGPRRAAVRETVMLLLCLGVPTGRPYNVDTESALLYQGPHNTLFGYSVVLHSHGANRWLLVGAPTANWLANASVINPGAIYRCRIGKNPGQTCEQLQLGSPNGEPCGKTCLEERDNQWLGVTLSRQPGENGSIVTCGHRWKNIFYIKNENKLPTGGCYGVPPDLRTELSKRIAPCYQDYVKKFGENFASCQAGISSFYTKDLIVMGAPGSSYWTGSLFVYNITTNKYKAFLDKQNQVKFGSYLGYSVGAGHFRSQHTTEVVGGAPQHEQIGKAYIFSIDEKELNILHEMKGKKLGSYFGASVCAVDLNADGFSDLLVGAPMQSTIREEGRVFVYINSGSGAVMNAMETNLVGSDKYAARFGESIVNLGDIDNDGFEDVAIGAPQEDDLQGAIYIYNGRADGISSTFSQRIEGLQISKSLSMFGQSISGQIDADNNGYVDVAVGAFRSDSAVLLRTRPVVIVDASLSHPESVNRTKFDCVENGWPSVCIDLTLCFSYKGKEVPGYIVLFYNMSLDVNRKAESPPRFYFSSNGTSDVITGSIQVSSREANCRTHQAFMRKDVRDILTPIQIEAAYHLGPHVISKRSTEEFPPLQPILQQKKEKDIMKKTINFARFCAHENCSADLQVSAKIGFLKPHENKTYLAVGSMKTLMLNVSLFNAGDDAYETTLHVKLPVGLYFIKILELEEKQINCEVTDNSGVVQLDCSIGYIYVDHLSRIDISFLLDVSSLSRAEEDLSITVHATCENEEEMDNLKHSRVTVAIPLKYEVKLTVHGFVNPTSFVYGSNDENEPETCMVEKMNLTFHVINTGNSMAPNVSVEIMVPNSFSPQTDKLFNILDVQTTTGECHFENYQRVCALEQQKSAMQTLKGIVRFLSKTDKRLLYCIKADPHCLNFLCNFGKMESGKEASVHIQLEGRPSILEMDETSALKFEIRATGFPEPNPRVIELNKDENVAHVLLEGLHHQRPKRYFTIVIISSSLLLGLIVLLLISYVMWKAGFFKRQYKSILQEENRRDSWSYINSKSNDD

| Compound | IC50 [1] [nM] | inhibition [2] [%] | IC50 [3] [nM] |
| --- | --- | --- | --- |
| CCCCCOc1ccc(C[C@H](NC(=O)c2cccnc2)C(=O)O)cc1 | 3800 | 87 |  |
| CCCCCOc1ccc(C[C@H](NC(=O)Cc2cccc(N)c2)C(=O)O)cc1 | 4500 |  |  |
| CCCCCOc1ccc(C[C@H](NC(=O)C2CC(=O)N(C)C2c2cccnc2)C(=O)O)cc1 (stereo in doubt; 3) [listing 1 of 2 here] |  | 81 |  |
| CCCCCOc1ccc(C[C@H](NC(=O)c2c(C)cc(C)cc2C)C(=O)O)cc1 | 245 |  |  |
| CC(C)(C)OC(=O)N1CCC[C@H](CC(=O)N[C@@H](Cc2ccc(C#CCCCC(=O)O)cc2)C(=O)O)C1 | 640 |  |  |
| CCCCCOc1ccc(C[C@H](NC(=O)C2CC(=O)N(C)C2c2cccnc2)C(=O)O)cc1 (stereo in doubt; 22) [listing 1 of 2 here] |  | 90 |  |
| CCCCCOc1ccc(C[C@H](NC(=O)C2CC(=O)N(C)C2c2cccnc2)C(=O)O)cc1 (stereo in doubt; 3) [listing 2 of 2 here] | 1700 |  |  |
| CCCCCOc1ccc(C[C@H](NC(=O)c2c3ccccc3nc3ccccc23)C(=O)O)cc1 | 590 | 92 |  |
| CCCCCOc1ccc(C[C@H](NC(=O)C2CC(=O)N(C)C2c2cccnc2)C(=O)O)cc1 (stereo in doubt; 22) [listing 2 of 2 here] | 870 |  |  |
| COC(=O)CCCC#Cc1ccc(C[C@H](NC(=O)c2ccc(S(N)(=O)=O)cc2)C(=O)O)cc1 | 317 | 94 |  |
| CCCCCCc1ccc(C[C@H](NC(=O)Cc2cccc(NC(=N)N)c2)C(=O)O)cc1 | 7000 |  |  |

Continued by falling IC50 [1], values first:

| IC50 [1] [nM] | inhibition [2] [%] | IC50 [3] [nM] | Compound |
| --- | --- | --- | --- |
| 210 |  |  | CCCCCOc1ccc(C[C@H](NC(=O)C2(C)CC2(Cl)Cl)C(=O)O)cc1 (stereo not given in full) |
| 187 | 80 |  | CC1(C(=O)N[C@@H](Cc2ccc(C#CCCCC(=O)O)cc2)C(=O)O)CC1(Cl)Cl (stereo not given in full) |
| 135 | 99 |  | CO/N=C(\C(=O)N[C@@H](Cc1ccc(C#CCCCC(=O)OC)cc1)C(=O)O)c1csc(N)n1 |
| 112 |  | 4200 | CCCCCOc1ccc(C[C@H](NC(=O)[C@@H]2CSCN2C(C)=O)C(=O)O)cc1 |
| 60 |  |  | CCCCCOc1ccc(C[C@H](NC(=O)/C(=N/OC)c2csc(N)n2)C(=O)O)cc1 |
| 46 | 97 |  | CCCCCOc1ccc(C[C@H](NC(=O)[C@@H]2CCC(=O)N2Cc2ccccc2)C(=O)O)cc1 |
| 20 |  |  | O=C(O)CCCC#Cc1ccc(C[C@H](NC(=O)[C@@H]2CCC(=O)N2Cc2ccccc2)C(=O)O)cc1 |
